Assay results from patent US8802597B2, “Herbicidal pyrimidines” (E I du Pont de Nemours and Company, priority 2003, dated 2014).

Experiments:
Experiment in all cases: Test G pre/postemergence
Assay type in all cases: in vivo
[1] = test system: purple nutsedge (Cyperus rotundus)
Method in brief: (§1)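 Seeds or nutlets were planted and treated preemergence with compound formulated in a non-phytotoxic solvent mixture containing surfactant; plants 2 to 18 cm tall (1- to 4-leaf stage) received postemergence sprays of the same formulation. After 12 to 21 days in a greenhouse, injury was rated visually against untreated controls on a 0–100 scale (100 = complete control).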

[2] = test system: common groundsel (Senecio vulgaris)
Method in brief: as §1

[3] = test system: spanishneedles (Bidens bipinnata)
Method in brief: as §1

[4] = test system: Russian thistle (Salsola kali); details: Preemergence, scale 0-100
Method in brief: as §1

[5] = test system: kochia (Kochia scoparia)
Method in brief: as §1

[6] = test system: Canada horseweed (Conyza canadensis)
Method in brief: as §1

[7] = test system: common purslane (Portulaca oleracea)
Method in brief: as §1

[8] = Postemergence, 8 g ai/ha, scale 0 to 100
[9] = Postemergence, 16 g ai/ha, scale 0 to 100
[10] = Postemergence, 31 g ai/ha, scale 0 to 100
[11] = Postemergence, 62 g ai/ha, scale 0 to 100
[12] = Preemergence, 8 g ai/ha, scale 0-100
[13] = Preemergence, 16 g ai/ha, scale 0-100
[14] = Preemergence, 31 g ai/ha, scale 0-100
[15] = Preemergence, 62 g ai/ha, scale 0-100
[16] = Postemergence, 250 g ai/ha, scale 0 to 100
[17] = Postemergence, 125 g ai/ha, scale 0 to 100
[18] = Preemergence, 125 g ai/ha, scale 0-100
[19] = Preemergence, 250 g ai/ha, scale 0-100

SMILES: CCOC(=O)c1nc(-c2ccc(Cl)cc2)nc(N)c1Cl [Compound 64, ethyl 6-amino-5-chloro-2-(4-chlorophenyl)-4-pyrimidinecarboxylate]
- Plant response rating, Nutsedge, Purple [1, 8]: 0
- Plant response rating, Nutsedge, Purple [1, 9]: 35
- Plant response rating, Nutsedge, Purple [1, 10]: 35
- Plant response rating, Nutsedge, Purple [1, 11]: 35
- Plant response rating, Nutsedge, Purple [1, 12]: 0
- Plant response rating, Nutsedge, Purple [1, 13]: 0
- Plant response rating, Nutsedge, Purple [1, 14]: 0
- Plant response rating, Nutsedge, Purple [1, 15]: 0
- Plant response rating, Groundsel [2, 8]: 0
- Plant response rating, Groundsel [2, 9]: 0
- Plant response rating, Groundsel [2, 10]: 0
- Plant response rating, Groundsel [2, 11]: 0
- Plant response rating, Groundsel [2, 12]: 0
- Plant response rating, Groundsel [2, 13]: 0
- Plant response rating, Groundsel [2, 14]: 10
- Plant response rating, Groundsel [2, 15]: 40
- Plant response rating, Spanishneedles [3, 8]: 65
- Plant response rating, Spanishneedles [3, 9]: 75
- Plant response rating, Spanishneedles [3, 10]: 90
- Plant response rating, Spanishneedles [3, 11]: 90
- Plant response rating, Spanishneedles [3, 12]: 0
- Plant response rating, Spanishneedles [3, 13]: 0
- Plant response rating, Spanishneedles [3, 14]: 0
- Plant response rating, Spanishneedles [3, 15]: 35
- Plant response rating, Russian Thistle ([4]; 8 g ai/ha): 0
- Plant response rating, Russian Thistle ([4]; 31 g ai/ha): 0
- Plant response rating, Russian Thistle ([4]; 62 g ai/ha): 0
- Plant response rating, Kochia [5, 8]: 65
- Plant response rating, Kochia [5, 9]: 75
- Plant response rating, Kochia [5, 10]: 85
- Plant response rating, Kochia [5, 11]: 90
- Plant response rating, Kochia [5, 12]: 0
- Plant response rating, Kochia [5, 13]: 0
- Plant response rating, Kochia [5, 14]: 10
- Plant response rating, Kochia [5, 15]: 15
- Plant response rating, Horseweed [6, 8]: 60
- Plant response rating, Horseweed [6, 9]: 60
- Plant response rating, Horseweed [6, 10]: 60
- Plant response rating, Horseweed [6, 11]: 60
- Plant response rating, Horseweed [6, 12]: 0
- Plant response rating, Horseweed [6, 13]: 75
- Plant response rating, Horseweed [6, 14]: 95
- Plant response rating, Horseweed [6, 15]: 95
- Plant response rating, Purslane [7, 8]: 0
- Plant response rating, Purslane [7, 9]: 0
- Plant response rating, Purslane [7, 10]: 0
- Plant response rating, Purslane [7, 11]: 60
- Plant response rating, Purslane [7, 12]: 0
- Plant response rating, Purslane [7, 13]: 0
- Plant response rating, Purslane [7, 14]: 0
- Plant response rating, Purslane [7, 15]: 35

SMILES: Nc1nc(C2CC2)nc(C(=O)[O-])c1Cl.[Na+] [Compound 77, 6-amino-5-chloro-2-cyclopropyl-4-pyrimidinecarboxylic acid monosodium salt]
- Plant response rating, Nutsedge, Purple [1, 16]: 40
- Plant response rating, Nutsedge, Purple [1, 9]: 0
- Plant response rating, Nutsedge, Purple [1, 10]: 0
- Plant response rating, Nutsedge, Purple [1, 11]: 0
- Plant response rating, Nutsedge, Purple [1, 17]: 0
- Plant response rating, Nutsedge, Purple [1, 13]: 100
- Plant response rating, Nutsedge, Purple [1, 14]: 100
- Plant response rating, Nutsedge, Purple [1, 15]: 100
- Plant response rating, Nutsedge, Purple [1, 18]: 100
- Plant response rating, Nutsedge, Purple [1, 19]: 100
- Plant response rating, Groundsel [2, 16]: 100
- Plant response rating, Groundsel [2, 9]: 40
- Plant response rating, Groundsel [2, 10]: 75
- Plant response rating, Groundsel [2, 11]: 80
- Plant response rating, Groundsel [2, 17]: 95
- Plant response rating, Groundsel [2, 13]: 50
- Plant response rating, Groundsel [2, 14]: 60
- Plant response rating, Groundsel [2, 18]: 80
- Plant response rating, Groundsel [2, 19]: 100
- Plant response rating, Spanishneedles [3, 16]: 98
- Plant response rating, Spanishneedles [3, 9]: 75
- Plant response rating, Spanishneedles [3, 10]: 95
- Plant response rating, Spanishneedles [3, 11]: 98
- Plant response rating, Spanishneedles [3, 17]: 98
- Plant response rating, Russian Thistle ([4]; 16 g ai/ha): 85
- Plant response rating, Russian Thistle ([4]; 62 g ai/ha): 100
- Plant response rating, Russian Thistle ([4]; 250 g ai/ha): 100
- Plant response rating, Kochia [5, 16]: 98
- Plant response rating, Kochia [5, 9]: 90
- Plant response rating, Kochia [5, 10]: 95
- Plant response rating, Kochia [5, 11]: 98
- Plant response rating, Kochia [5, 17]: 98
- Plant response rating, Kochia [5, 13]: 85
- Plant response rating, Kochia [5, 14]: 95
- Plant response rating, Kochia [5, 15]: 95
- Plant response rating, Kochia [5, 18]: 100
- Plant response rating, Kochia [5, 19]: 100
- Plant response rating, Horseweed [6, 16]: 80
- Plant response rating, Horseweed [6, 9]: 40
- Plant response rating, Horseweed [6, 10]: 50
- Plant response rating, Horseweed [6, 11]: 75
- Plant response rating, Horseweed [6, 17]: 80
- Plant response rating, Horseweed [6, 13]: 70
- Plant response rating, Horseweed [6, 14]: 90
- Plant response rating, Horseweed [6, 15]: 100
- Plant response rating, Horseweed [6, 18]: 100
- Plant response rating, Horseweed [6, 19]: 100
- Plant response rating, Purslane [7, 16]: 85
- Plant response rating, Purslane [7, 9]: 20
- Plant response rating, Purslane [7, 10]: 20
- Plant response rating, Purslane [7, 11]: 60
- Plant response rating, Purslane [7, 17]: 70
- Plant response rating, Purslane [7, 13]: 45
- Plant response rating, Purslane [7, 14]: 60
- Plant response rating, Purslane [7, 15]: 75
- Plant response rating, Purslane [7, 18]: 100
- Plant response rating, Purslane [7, 19]: 100
